Entries after “also recorded” stand apart in the source; their conditions may differ.
System: HSPCs bearing CH mutations
Test: Genomic analysis of CH clone expansion (change in VAF) in blood of SCLC patients randomized to carboplatin/etoposide with trilaciclib or placebo
Type: in vivo, human
Description: To evaluate the effect of trilaciclib on the expansion of CH clones in patients receiving chemotherapy, the following experiments were conducted. Blood samples obtained from a randomized, placebo-controlled trial of trilaciclib in SCLC patients receiving fist-line carboplatin and etoposide chemotherapy were sequenced pre- and post-treatment.
Blood samples were obtained from a clinical trial of SCLC patients receiving first-line carboplatin/etoposide combination chemotherapy randomized to concurrently receive the CDK4/6 inhibitor trilaciclib or placebo (FIG. 1). We performed targeted mutational analysis of genomic DNA from peripheral blood before and after five cycles of carboplatin/etoposide (˜5 months) in 59 individuals, 32 of whom received concurrent trilaciclib with each cycle of chemotherapy (FIG. 1, top row) and 27 who received placebo (FIG. 1, middle row). As a comparator group, sequential samples were obtained from 178 individuals from another longitudinal study (FIG. 1, bottom row) selected as cancer-free and matched in age and length of follow-up to the participants in the SCLC clinical trial. All samples were analyzed as described below to measure how the number of HSPCs bearing CH mutations (reflected by the variant allele frequency [VAF]) changed over time in individuals randomized to receive trilaciclib compared to placebo and to untreated healthy adults.
A custom-targeted CH panel was developed using VariantPlex (ArcherDX), an amplicon sequencing method that leverages bi-directional primers and molecular barcodes (MBCs) to enable reliable detection of extremely low VAF variants. The CH panel included exonic regions of the nine CH genes most commonly mutated in solid tumor patients (DNMT3A, TET2, ASXL1, PPM1D, TP53, CHEK2, JAK2, SRSF2, and SF3B1).
In brief, following DNA fragmentation, ligation with a universal MBC adapter was performed, tagging each DNA molecule with a unique molecular index (UMI) and allowing for unidirectional amplification of the sample using gene-specific primers. The resulting libraries were sequenced using a NovaSeq 6000 instrument. The average unique coverage per sample was 20,746×. Using tumor-normal dilution series from six AML patients, we developed a custom CH variant calling pipeline integrating three variant callers (Mutect2, Vardict, LoFreq) with post-calling filtering to remove germ line variants and artifacts. A critical feature of this pipeline is the empiric estimation of variant-specific error rates using a technical panel of normals consisting of 30 blood samples from children18.
The distribution of mutations within genes was characterized by notable enrichments for DDR genes (PPM1D, TP53, CHEK2) relative to DTA genes. For each CH mutation, the change in VAF between the first and second time points was calculated. […]

`CN1CCN(c2ccc(Nc3ncc4cc5n(c4n3)C3(CCCCC3)CNC5=O)nc2)CC1` [trilaciclib] was tested, and the “growth suppression of CH clones by gene: TET2” value (SCLC patients, carboplatin/etoposide, FIG. 5) was “largest impact”, the “expansion of CH mutations in the DDR pathway (TP53, CHEK2, PPM1D) following chemotherapy (change in VAF)” value (SCLC patients, concurrent with five cycles of carboplatin/etoposide (~5 months), relative to placebo group) was “reduced expansion following chemotherapy; also recorded: lower expansion with chemotherapy” and the “growth of CH clones bearing mutations in epigenetic modifiers DTA (DNMT3A, TET2, ASXL1)” value (SCLC patients, concurrent with five cycles of carboplatin/etoposide (~5 months), vs placebo) was “suppressed the growth of CH clones”. For the same compound, the “carboplatin-related clonal hematopoiesis (DDR and DTA)” value (carboplatin chemotherapy) was “inhibited carboplatin-related clonal hematopoiesis; also recorded: protects against both DDR and DTA clonal hematopoiesis”.

From patent US20240108625A1, “CDK4/6 INHIBITORS AS A TREATMENT FOR CLONAL HEMATOPOIESIS” (Washington University, priority 2022, published 2024)
